# Reference: patent publication US9228175B2, “Genes encoding a novel type of lysophophatidylcholine acyltransferases and their use to increase triacylglycerol production and/or modify fatty acid composition” (National Research Counsel of Canada, priority 2006, dated 2016)
# T1: LCA1 (YOR175c) (Saccharomyces cerevisiae, UniProt Q08548)
# T1 construct: Saccharomyces cerevisiae YOR175c ORF was PCR-amplified; made in house; host or cells: S. cerevisiae YOR175c deletion strain Y02431 (lca1Δ), pYES2.1, galactose induction; microsomal fraction
# T1 sequence (Q08548 1-619): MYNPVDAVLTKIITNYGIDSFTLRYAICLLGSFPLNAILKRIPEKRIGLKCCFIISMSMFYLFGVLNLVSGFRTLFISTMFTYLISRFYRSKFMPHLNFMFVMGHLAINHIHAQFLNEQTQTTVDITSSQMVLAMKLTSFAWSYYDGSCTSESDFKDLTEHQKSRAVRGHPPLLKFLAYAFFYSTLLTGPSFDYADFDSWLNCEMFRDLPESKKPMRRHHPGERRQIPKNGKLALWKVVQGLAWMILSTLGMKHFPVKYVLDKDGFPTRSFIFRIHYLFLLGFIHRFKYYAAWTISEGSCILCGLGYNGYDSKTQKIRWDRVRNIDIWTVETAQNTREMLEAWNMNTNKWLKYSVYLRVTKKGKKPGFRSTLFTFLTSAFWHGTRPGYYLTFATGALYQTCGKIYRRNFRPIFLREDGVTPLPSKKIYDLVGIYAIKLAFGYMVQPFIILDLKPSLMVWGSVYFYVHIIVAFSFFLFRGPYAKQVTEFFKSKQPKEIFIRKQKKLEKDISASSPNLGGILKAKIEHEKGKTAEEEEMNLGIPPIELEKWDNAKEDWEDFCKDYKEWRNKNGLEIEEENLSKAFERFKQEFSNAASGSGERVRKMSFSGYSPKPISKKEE
# T2: LCA1 (Saccharomyces cerevisiae, UniProt Q08548)
# T2 construct: Saccharomyces cerevisiae YOR175c ORF was PCR-amplified; made in house; host or cells: S. cerevisiae YOR175c deletion strain Y02431 (lca1Δ), pYES2.1, galactose induction; microsomal fraction
# T2 sequence (Q08548 1-619): T1 sequence (Q08548 1-619)
# B1: LCA1: yeast (S. cerevisiae) LPC acyltransferase encoded by YOR175c, SEQ ID NO:2 (protein, listed as Saccharomyces cerevisiae)
# chain: T1 sequence (Q08548 1-619)
# What was measured:
# LCA1 (YOR175c) = biological target: T1, LCA1 (YOR175c); test: In vitro assay of LPCAT activity: substrate specificity and kinetics of LCA1 (YOR175c); format: biochemical; conditions: for Rate of acylation as % of the activity registered for LPC: [^14C] palmitoyl-CoA as acyl donor, 50 μM lysophospholipid, microsomes of lca1Δ expressing YOR175c
# Procedure: FIG. 11 is a graph showing the substrate specificity of LCA1. The assays were performed with 3 μg microsomal protein from lca1Δ harboring an empty vector (V0) and lca1Δ expressing LCA1. The reaction contained 112.5 μm [^14C] palmitoyl-CoA (5.5 nCi/nmol) and 50 μM lysophospholipid substrate (LPA, LPC, LPE, LPG, LPI, and LPS). Reaction was allowed for two minutes with 100 rpm shaking. The results are presented as a mean of three assays.
# (§1) Microsomal preparation: Yeast strains were first grown in 15 ml of SC-Leu-His-Ura medium containing 2% glucose. Protein expression induction was carried out as described in Invitrogen manufacturer manual for yeast expression vector pYES2.1. After 24 hours of growth in SC+2% galactose+1% raffinose induction conditions, the cells were washed, first with distilled water and then with wall-breaking buffer (50 mM Tris-HCl, 1 mM EDTA, 0.6 M sorbitol, pH 7.4, 1 mM DTT). After centrifugation at 4,000 rpm (Eppendorf Centrifuge 5145C), the cells were resuspended in 1 ml wall-breaking buffer with 10 μl yeast protease cocktail (Sigma), and shaken vigorously in the presence of acid-washed glass beads (diameter 0.5 mm). The resultant homogenate was centrifuged at 12,000 rpm for ten minutes at 4° C. The decanted supernatant was further centrifuged at 100,000×g for 90-120 minutes at 4° C. The supernatant was discarded, and the pellet was suspended in homogenization buffer containing 20% glycerol and frozen at −80° C. until use. Protein concentration was measured using Bio-Rad Protein Assay Kit for final enzyme activity calculation.
# (§2) In Vitro Assay of LPCAT activity: LPCAT substrate specificity was determined by measuring incorporation of [^14C] lysophosphatidylcholine or [^14C] palmitoyl-CoA into phosphatidylcholine. All assays were performed at least twice. For lysophospholipid substrate specificity assessment, 400 μl HEPES buffer contained 3 μg microsomal protein, 50 μM of lysophospholipid substrates and 112.5 μM [^14C] palmitoyl-CoA (5.5 nCi/nmol). For acyl-CoA substrate selectivity analysis, 400 μl HEPES reaction buffer (pH7.4, 0.1 M) contained 3 μg microsomal protein, 50 μM acyl-CoA and 112.5 μM [^14C] […] (1.35 nCi/nmol). Reaction was allowed for 2 minutes at 30° C. with 100 rpm shaking. The reaction products were extracted with chloroform/methanol (2/1, v/v) and separated with Merck silica G60 TLC plates. Spots corresponding to different phospholipid species products were scraped off and ^14C incorporation were scintillation counted. Different concentrations of ZnCl2 were added in to reactions for Zn^2+ inhibitory effect assay.
# [1] = test system: lca1Δ yeast mutant (Y02431); format: cell-based, Saccharomyces cerevisiae
# Procedure: (§3) Cells were frown first in SC-URA+2% glucose media overnight then in protein expression induction media for six hours. Cultures were diluted to OD600 value of OD600 0.5, 1, 2, 3, respectively, from which 5 μl were inoculated (from left to right) onto YPD plate containing lyso-PAF or lyso-PC. The plates were incubated at 28° C. for 36 hours.
# (§4) Lyso-PAF sensitivity: Yeast strains Y02431 over-expressing LCA1 or harboring empty vector were first grown in 15 ml of SC-ura medium containing 2% glucose then transferred to SC-ura+2% galactose and 1% raffinose. After 12 hours LCA1 expression induction, the culture was diluted to correspond to OD600 value of 0.5, 1, 2, 3, 4. Five μl of each dilution was spotted to a YPD plate supplemented with varying concentrations of Lyso-PAF. The plates were incubated at 28° C. for two days.
# Lyso-PAF sensitivity: Yeast strains BY02431 carrying pYES 2.1-AtLPCATs or the empty vector were first grown in 15 ml of SC-Leu-His-ura medium containing 2% glucose. Yeast transformant strains of AtLPCATs were first grown in YPD overnight. Protein expression induction were carried out by protocol described in Invitrogen manufacturer manual for yeast expression vector pYES2.1. After 12 hours induction, 5 μl cultures were inoculated onto YPD plate with 10 μg/ml lysoPAF. The plates were incubated at 28° C. for two days. The final lysoPAF is 10/ml.
# [2] = test system: parental (WT) yeast strain; test: Lyso-PAF and lyso-PC sensitivity plate test, parental strain; format: cell-based, Saccharomyces cerevisiae; conditions: plate assay
# Procedure: as §3, §4
# LCA1 = biological target: T2, LCA1; test: Zn^2+ / Mg^2+ effect on LPCAT activity of LCA1 (in vitro assay, microsomes of lca1Δ over-expressing LCA1); format: biochemical; conditions: concentration ranging from 5 to 40 μM (data not shown)
# Procedure: as §1, §2
# Results are expressed as means±S.D. The lca1Δ over-expressing LCA1 was used to assess Zn^2+ effect. The reactions contained 5.6 μM palmitoyl-LPC (1.35 nCi/nmol), 1.5 μg microsomal proteins, 0.1 M HEPES (pH 7.4), 11.25 μM stearyl-CoA and indicated concentration of ZnCl2. The reaction was stopped after two minutes by adding 2 ml of chloroform/methanol solution (2:1).
molecule,measurement,setting,value
lysophosphatidylcholine [LPC],Acyltransferase activity among lysophospholipid substrates,"LCA1 (YOR175c); [^14C] palmitoyl-CoA, LPA, LPC, LPE, LPG, LPI, LPS compared",highest activity
same,Level tolerated,"[1]; lca1Δ, plate assay",up to 20 μg/ml
same,Level tolerated,[2],up to 20 μg/ml
[Mg+2] [Mg^2+],Effect on LPCAT activity of LCA1,LCA1,did not detect significant effect
lysophosphatidylethanolamine [LPE],Rate of acylation as % of the activity registered for LPC,LCA1 (YOR175c),~20%
lysophosphatidylglycerol [LPG],Rate of acylation as % of the activity registered for LPC,LCA1 (YOR175c),approximately 60%
"CCCCCCCCCCCCCCCC(=O)OC[C@@H](O)COP(=O)([O-])OCC[N+](C)(C)C [LPC (16:0), palmitic (16:0)-LPC]",Concentration above which inhibitory effects on LPCAT activity are exerted,LCA1 (YOR175c); data not shown,above 75 μM
1-O-alkyl-sn-glycero-3-phosphocholine [lyso-PAF],Growth of lpcat yeast mutant,[1]; 10 ug/ml on YPD plate,incapable of growth
same,Concentration above which hypersensitivity is displayed,"[1]; lca1Δ mutant, plate assay",above 5 μg/ml
B1,Vmax,LCA1 (YOR175c); Lineweaver-Burk double-reciprocal plot,524 pmol/min/μg protein
same,Km,"LCA1 (YOR175c); Lineweaver-Burk double-reciprocal plot, read-out: apparent Km for acyl-CoA",0.89 ± 0.25 µM
same,Increase in lyso-PAF acyltransferase activity on over-expression,LCA1 (YOR175c); lyso-PAF as acyl acceptor,86.3 fold
